{
  "source": "patent US11400168B2",
  "about": "“Methods and systems for noninvasive control of brain cells and related vectors and compositions” (CALIFORNIA INSTITUTE OF TECHNOLOGY, priority 2017, dated 2022)",
  "key": {"hM4Di": {"target": "T1, hM4Di (Homo sapiens, UniProt P08173, A203G/Y113C)", "T1 construct": "host or cells: mouse (C57BL6J) hippocampal excitatory neurons transduced in vivo with AAV9", "T1 sequence (P08173 1-479 Y113C/A203G)": "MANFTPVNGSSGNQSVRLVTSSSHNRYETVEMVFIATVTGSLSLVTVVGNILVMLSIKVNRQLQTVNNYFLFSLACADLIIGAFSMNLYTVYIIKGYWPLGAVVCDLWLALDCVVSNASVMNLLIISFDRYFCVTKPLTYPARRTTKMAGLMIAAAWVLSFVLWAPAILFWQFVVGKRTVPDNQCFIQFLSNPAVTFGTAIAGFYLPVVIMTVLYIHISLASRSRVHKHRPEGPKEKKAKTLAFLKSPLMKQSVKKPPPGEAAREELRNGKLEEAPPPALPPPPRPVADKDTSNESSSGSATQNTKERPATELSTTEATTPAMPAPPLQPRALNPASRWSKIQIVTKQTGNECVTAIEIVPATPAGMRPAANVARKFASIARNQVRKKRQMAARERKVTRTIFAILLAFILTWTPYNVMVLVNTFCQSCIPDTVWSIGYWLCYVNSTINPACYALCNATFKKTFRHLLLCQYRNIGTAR", "assay": "Context fear conditioning and recall (freezing in Context A) with hM4Di targeted to ventral and dorsal hippocampus", "type": "in vivo, mice", "experimental": "(§1) Behavioral studies for fear conditioning were performed in sound-attenuated fear conditioning chambers (30×25×25 cm, Med Associates). Animals were trained and tested for context fear in Context A, which comprised a staggered wire grid floor, white light, 5% acetic acid for scent and no background noise. Locomotor testing was performed in Context B, which was differentiated from Context A by chamber shape, floor, illumination, odor, background noise and room location. Animal activity was recorded and quantified using Video Freeze software (Med Associates). For cued training, the tone was 80 dB and 30s.\n(§2) Mice were injected with CNO (10 mg/kg, IP) or saline (IP), and after 40-60 minutes underwent context and cued fear conditioning in Context A. This timeframe was chosen to allow CNO to reach its pharmacokinetic peak[88]. A 3-minute initial baseline period was followed by 3×30-s presentations of a tone co-terminated with a 2-s foot shock (0.7 mA), with inter-trial interval of 60 s. After the trials, the mice remained in the context for an additional 60 s, after which they were transported back into the vivarium. After 24 h, mice were placed in Context A to record context fear for the duration of training (8 min. and 40 s).\nMice were recorded using automated near-infrared video tracking in the fear conditioning chamber using VideoFreeze software. Mouse motion was measured using the activity score, from a video recording at 30 frames/s, with the motion threshold set at 18 activity units (standard value set in software). Freezing was defined as an activity score below 18 units for at least 1 s. Average freezing in the context test was scored over the whole trial. Due to automated data acquisition and evaluation, no blinding was necessary.\nmice were excluded from statistical analysis if their histologically determined DREADD expression was below 30% of cell bodies in dorsal CA3 region of the hippocampus. This threshold was chosen based on previous studies showing that behavioral effects generally require modulation of at least 30% of the neurons in a targeted region[89, 90] and dorsal CA3 being the most robustly transfected hippocampus region. The resulting analyzed groups had identical levels of expression (55.1% for Saline and 60.5% for CNO groups, p=0.26, heteroscedastic, two-tailed, t-test). […] Variability in gene expression may have been due to variability in intravenous injections of virus during the FUS-BBBO procedure, since we found no difference between these mice in T1 MRI signal enhancement post FUS-BBBO (FIG. 15, panel b).\nTo assess the ability of ATAC to inhibit targeted neurons, and to test the functionality of this technology in a behavioral paradigm, FUS-BBBO was used to target inhibitory DREADDs (hM4Di) to ventral and dorsal hippocampus (FIG. 5, panel a), and the impact of CNO administration on the formation of contextual fear memories was assessed. This well-established behavioral paradigm has been used in studies of anxiety, phobias, PTSD and fear circuitry[99]° [100]. Fear conditioning has also served as a testing ground for other novel neuromodulatory techniques. Since the hippocampus plays an essential role in memory formation, it is hypothesized that inhibiting it noninvasively using the ATAC strategy would reduce the ability of mice to form fear memories.\nTwo groups of control mice were either completely untreated or received intravenous virus without FUS-BBBO. After 6-8 weeks, the mice underwent a fear conditioning protocol (FIG. 5, panel a). In this protocol, the mice are placed in a unique environment (defined by chamber shape, lighting, smell and sound; Context A in FIG. 5, panel a) while receiving three electric foot shocks, causing them to associate this environment with the noxious stimulus in a process known as context fear conditioning. […]"}, "[1]": {"assay": "Exploratory behavior in novel environment (Context B, open field test)", "type": "in vivo", "details": "all groups of mice (ATAC, AAV without FUS-BBBO, wild-type), 3 minutes", "experimental": "as §1\nBetween 30 and 45 minutes after the context fear test, mice were transported to another room, placed in Context B and allowed to explore the chamber for 3 minutes while their activity was recorded. Due to automated data acquisition and evaluation, no blinding was necessary.\nOne day after fear conditioning, the mice were placed in a novel environment (Context B in FIG. 5, panel a), which they were allowed to explore freely for 3 minutes. The exploratory behavior of all groups of mice was likewise unaffected by CNO administration (FIG. 5, panel e-g)."}, "hM3Dq [2]": {"target": "T2, hM3Dq (Homo sapiens, UniProt P20309, A239G/Y149C)", "T2 sequence (P20309 whole entry Y149C/A239G)": "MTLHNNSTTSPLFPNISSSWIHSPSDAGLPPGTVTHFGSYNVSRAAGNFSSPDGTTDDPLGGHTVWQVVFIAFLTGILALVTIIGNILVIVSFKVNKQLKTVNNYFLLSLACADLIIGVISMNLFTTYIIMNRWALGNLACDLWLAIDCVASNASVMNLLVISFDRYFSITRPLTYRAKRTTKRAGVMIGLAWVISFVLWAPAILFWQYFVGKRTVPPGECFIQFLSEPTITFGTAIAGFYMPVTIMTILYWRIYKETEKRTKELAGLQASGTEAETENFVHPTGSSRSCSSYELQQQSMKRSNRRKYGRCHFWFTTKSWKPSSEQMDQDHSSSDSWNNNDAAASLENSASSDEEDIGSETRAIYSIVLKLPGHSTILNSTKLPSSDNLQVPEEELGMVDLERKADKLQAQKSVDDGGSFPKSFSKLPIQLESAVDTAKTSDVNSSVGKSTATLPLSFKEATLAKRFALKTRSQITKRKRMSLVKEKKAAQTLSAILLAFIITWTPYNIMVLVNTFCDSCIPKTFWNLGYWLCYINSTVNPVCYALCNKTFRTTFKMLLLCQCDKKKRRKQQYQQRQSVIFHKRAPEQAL", "assay": "c-Fos activation in dorsal CA3 of hippocampus after CNO in mice expressing hM3Dq-mCherry (ATAC)", "type": "in vivo", "design": "host or cells: mouse (C57BL6J) hippocampal excitatory neurons transduced in vivo with AAV9", "details": "CNO 1 mg/kg IP, 2.5 h, 22 weeks after FUS-BBBO, n=6", "experimental": "C57BL6J male mice of 13 weeks of age underwent FUS-BBBO to administer AAV9 carrying hM3Dq-mCherry into the hippocampus. Subsequently, mice were housed singly to reduce background C-fos expression. After 22 weeks of expression, mice received an IP injection of 1 mg/kg CNO in sterile saline, and were returned to home cages. After 150 minutes, mice were anesthetized using Ketamine/Xylazine solution (80 mg/kg and 10 mg/kg, respectively, in PBS) and perfused with a cold PBS/Heparin (10 U/ml), and immediately afterwards with 10% Neutral Buffered Formalin (NBF). Their brains were extracted and post-fixed in 10% NBF for at least 24 hours. Brain sections (50 μm) were obtained using a VF-300 compresstome (Precisionary Instruments). […]\n(§3) For activation of hippocampus, the histological evaluation was performed by an observer blinded to the identity (hM3Dq positive, or negative) of granular layer nuclei in dCA3. The expression status of the neurons was determined after the scoring of c-Fos positivity. The activation of TH neurons was evaluated by an observer blinded to the presence of FUS-BBBO targeting at a given site. […] A three-dimensional reference atlas[82] was used to choose the appropriate regions and brain sections for each mouse and contralateral and ipsilateral controls to ascertain consistency in choice of analyzed sections. […]"}, "hM3Dq [3]": {"target": "T2, hM3Dq", "assay": "Intersectional ATAC: c-Fos activation of TH-positive neurons in SNc/VTA of TH-CRE mice", "type": "in vivo, TH-CRE transgenic mice", "design": "expressed in transfected cells; host or cells: TH-positive neurons of SNc/VTA in TH-CRE transgenic mice, transduced in vivo with AAV9", "details": "CNO 1 mg/kg IP, 2 h; 9 weeks expression; n=5 mice", "experimental": "After FUS-BBBO, the mice were imaged again using the same FLASH sequence to confirm opening of the BBB and appropriate targeting. Immediately afterwards, mice were placed in the home cage for recovery. The TH-CRE animals, aged 18 weeks, were subjected to FUS-BBBO using the same protocol, and using the same dose of AAV9, as for C57BL6J mice. All TH-CRE animals were females.\nas §3, with “site. TH-CRE mice expressed hM3Dq for 9 weeks after FUS-BBBO, and then were given 1 mg/kg CNO. After 2 h, they were anesthetized with ketamine/xylazine (80/10 mg/kg in PBS) and perfused using cold heparine/PBS (10 u) and then 10% NBF.” for “site.”"}, "[4]": {"assay": "Cued conditioning acquisition (freezing during third tone of training)", "type": "in vivo", "details": "ATAC, wild-type and AAV without FUS-BBBO mice", "experimental": "as §1\nas §2, with “s). […]” for “s).”"}},
  "data": [
    {"compound": "C[N+]1([O-])CCN(C2=Nc3cc(Cl)ccc3Nc3ccccc32)CC1", "note": "[CNO, clozapine-N-oxide]", "values": [
      {"measurement": "time spent freezing in fear recall context", "setting": "hM4Di; ATAC mice (hM4Di), CNO 10 mg/kg IP 40-60 min before conditioning, recall 24 h later, saline 53.2%", "result": 21.8, "unit": "%"},
      {"measurement": "context fear (freezing) without excluding mice with expression below 30%", "setting": "hM4Di; ATAC mice treated with CNO, all mice, saline 53.2%", "result": 34, "unit": "%"},
      {"measurement": "reduction in fear memory versus saline", "setting": "hM4Di; ATAC mice, CNO before conditioning, n=13 and 7", "result": "more than 2 fold"},
      {"measurement": "context fear relative to untreated controls", "setting": "hM4Di; CNO treatment alone in wild-type mice", "result": "did not result in a reduction in context fear"},
      {"measurement": "correlation (r) of DREADD expression in dorsal CA3 with formation of context fear memories", "setting": "hM4Di; mice treated with CNO, all mice, n=11", "result": 0.62},
      {"measurement": "reduction in fear memory formation", "setting": "hM4Di; single injection of CNO several weeks after FUS-BBBO", "result": 2.4, "unit": "fold"},
      {"measurement": "context fear relative to untreated controls", "setting": "hM4Di; systemic AAV9 injection without FUS-BBBO, CNO", "result": "did not result in a reduction in context fear"},
      {"measurement": "exploratory behavior", "setting": "[1]", "result": "unaffected"},
      {"measurement": "likelihood of c-Fos staining, hM3Dq-positive cells versus cells not expressing hM3Dq", "setting": "hM3Dq [2]", "result": 5.8, "unit": "times"},
      {"measurement": "increase in activation (c-Fos) among TH-positive neurons, ATAC-targeted side versus contralateral", "setting": "hM3Dq [3]", "result": 7.3, "unit": "fold"},
      {"measurement": "cued freezing at the end of the training session", "setting": "[4]", "result": "unaffected"}
    ]}
  ]
}
